In patent publication EP0197664A2, “2-Aminopyrimidinone derivatives” (SMITH KLINE & FRENCH LABORATORIES LIMITED, priority 1985, dated 1986) one finds ED50 and EC50 data, which are given here for four compounds.

The test system of test [1] is anaesthetised cats. In words: Cardiac stimulant activity in vivo (anaesthetised cats, left ventricular dp/dt max). The note with it: Felis catus, read-out: ED50 (dose to increase left ventricular dp/dt max by 50%); anaesthetised cats pretreated with pempidine and propranolol, intravenous. The source says:
The dose to increase left ventricular dp/dt max by 50% is given as the EDso.

Test [2] relates to right ventricle strips. In words: Cardiac stimulant activity in vitro (force of contraction of electrically stimulated ventricular strips). It counts as cell-based, Guinea pigs. The note with it: Cavia porcellus, read-out: EC50 (50% increase in the force of contraction of the ventricular strips); guinea pig right ventricular strips, 1.0 Hz stimulation, Krebs Henseleit solution at 37°C, cumulative concentration response.
Method: The compounds of formula (I) and their pharmaceutically acceptable salts are tested for cardiac stimulant activity following a procedure based on that of S.C. […] Guinea pigs (500-700 g) of either sex are sacrificed and the hearts are quickly removed and transferred to a dissecting dish containing oxygenated bathing fluid. While in the bathing medium, the right ventricle is cut into two strips. The strips are each suspended in a 50 ml bath containing Krebs Henseleit solution at 37°C, and the bath is bubbled with 95% oxygen and 5% carbon dioxide. The ventricular strips are electrically stimulated at a frequency of 1.0 Hz, at double the threshold voltage. A resting tension of 1.0 g is applied to the strips and the tension is kept constant by readjustment during an equilibration period of 60 minutes. The bathing fluid is frequently changed during this period. When a steady base line is obtained, a compound under test is added to the bathing fluid and a cumulative concentration response curve is plotted.

For `Nc1cc(-c2ccncc2)c[nH]c1=O` [Amrinone, reference compound], the ED50 in test [1] is 5.6 µmol/kg. Also, the EC50 in test [2] is 15 µM. Turning to `CC1CC(=O)NN=C1c1ccc(Nc2nc(=O)cc[nH]2)cc1` (centres unmarked) [Example 1, 6-[4-(1,4-Dihydro-4-oxo-2-pyrimidinylamino)phenyl]-5-methyl-4,5-dihydro-3(2H)-pyridazinone], in test [1], the ED50 was found to be 0.06 µmol/kg.

As to `Cc1c[nH]c(Nc2ccc(C3=NNC(=O)CC3C)cc2)nc1=O` (centres unmarked) [Example 3, 6-[4-(1,4-Dihydro-5-methyl-4-oxo-2-pyrimidinylamino)phenyl]-5-methyl-4,5-dihydro-3-(2H)-pyridazinone], in test [1], the ED50 turned out to be 3.03 µmol/kg.

Turning to `CC1CC(=O)NN=C1c1ccc(Nc2nc(=O)c3ccccc3[nH]2)cc1` (centres unmarked) [Example 4, 6-[4-(1,4-Dihydro-4-oxo-2-quinazolinyiamino)-phenyl]-5-methyl-4,5-dihydro-3(2H)-pyridazinone], in test [1], the ED50 was determined as 0.41 µmol/kg.
